Measurements taken from ChEMBL document CHEMBL1201862, “PubChem BioAssay data set” (2004).
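All cell lines were grown in 96-well plates and treated with compound for 48 hours. GI50: concentration for 50% inhibition of growth.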 The source made the active and inactive calls. No stated cut-off is given here; in the data, active = GI50 up to about 1.1 µM and inactive = higher.

Columns and labels:
Experiment in all cases: DTP human tumour cell line panel, 48 h
[1] = tested on: 786-0
[2] = tested on: A498
[3] = tested on: A549
[4] = tested on: ACHN
[5] = tested on: CAKI-1
[6] = tested on: CCRF-CEM
[7] = tested on: COLO 205
[8] = tested on: DLD-1
[9] = tested on: DMS-114
[10] = tested on: DMS-273
[11] = tested on: EKVX
[12] = tested on: HCC 2998
[13] = tested on: HCT-116
[14] = tested on: HCT-15
[15] = tested on: HL-60
[16] = tested on: HOP-18
[17] = tested on: HOP-62
[18] = tested on: HOP-92
[19] = tested on: HT-29
[20] = tested on: IGROV-1
[21] = tested on: KM-20L2
[22] = tested on: KM12
[23] = tested on: LXFL 529
[24] = tested on: M14
[25] = tested on: M19-MEL
[26] = tested on: MOLT-4
[27] = tested on: Malme-3M
[28] = tested on: NCI-H226
[29] = tested on: NCI-H23
[30] = tested on: NCI-H460
[31] = tested on: NCI-H522
[32] = tested on: OVCAR-3
[33] = tested on: OVCAR-4
[34] = tested on: OVCAR-8
[35] = tested on: RXF 393
[36] = tested on: RXF 631
[37] = tested on: SF-268
[38] = tested on: SF-295
[39] = tested on: SF-539
[40] = tested on: SK-MEL-28
[41] = tested on: SK-MEL-2
[42] = tested on: SK-MEL-5
[43] = tested on: SK-OV-3
[44] = tested on: SN12C
[45] = tested on: SNB-19
[46] = tested on: SNB-75
[47] = tested on: SNB-78
[48] = tested on: SR
[49] = tested on: SW-620
[50] = tested on: TK-10
[51] = tested on: U-251
[52] = tested on: UACC-257
[53] = tested on: UACC-62
[54] = tested on: UO-31
[55] = tested on: K562
[56] = tested on: LOX IMVI
[57] = tested on: OVCAR-5

CC(C)c1cccc2sc(NC(=O)C(=O)C(C#N)c3cccc4ccccc34)nc12 (stereo not given)
GI50 [1]: > 100 µM (inactive)
GI50 [2]: 73.3 µM (inactive)
GI50 [3]: 80.7 µM (inactive)
GI50 [4]: 69.8 µM (inactive)
GI50 [5]: 30.5 µM (inactive)
GI50 [6]: 41.8 µM (inactive)
GI50 [7]: > 100 µM (inactive)
GI50 [8]: 98.6 µM (inactive)
GI50 [9]: 40.4 µM (inactive)
GI50 [10]: 90.4 µM (inactive)
GI50 [11]: 10.9 µM (inactive)
GI50 [12]: 65.8 µM (inactive)
GI50 [13]: 76.9 µM (inactive)
GI50 [14]: 75.5 µM
GI50 [15]: 30.5 µM (inactive)
GI50 [16]: 61.2 µM (inactive)
GI50 [17]: 99.8 µM (inactive)
GI50 [18]: 30.4 µM (inactive)
GI50 [19]: 77.4 µM (inactive)
GI50 [20]: 77.6 µM (inactive)
GI50 [21]: > 100 µM (inactive)
GI50 [22]: > 100 µM (inactive)
GI50 [23]: 73.1 µM (inactive)
GI50 [24]: > 100 µM (inactive)
GI50 [25]: 91.4 µM (inactive)
GI50 [26]: 23.1 µM (inactive)
GI50 [27]: 73.3 µM (inactive)
GI50 [28]: 71.1 µM (inactive)
GI50 [29]: 61.5 µM (inactive)
GI50 [30]: > 100 µM (inactive)
GI50 [31]: 54.1 µM (inactive)
GI50 [32]: 41.7 µM (inactive)
GI50 [33]: 29.8 µM (inactive)
GI50 [34]: 72.1 µM (inactive)
GI50 [35]: 25.2 µM (inactive)
GI50 [36]: > 100 µM (inactive)
GI50 [37]: > 100 µM (inactive)
GI50 [38]: 69.7 µM (inactive)
GI50 [39]: 20.7 µM (inactive)
GI50 [40]: > 100 µM (inactive)
GI50 [41]: 45.2 µM (inactive)
GI50 [42]: 68.1 µM (inactive)
GI50 [43]: 48.4 µM (inactive)
GI50 [44]: > 100 µM (inactive)
GI50 [45]: > 100 µM (inactive)
GI50 [46]: 23.4 µM (inactive)
GI50 [47]: 93.1 µM (inactive)
GI50 [48]: 32.4 µM (inactive)
GI50 [49]: > 100 µM (inactive)
GI50 [50]: > 100 µM (inactive)
GI50 [51]: 57.5 µM (inactive)
GI50 [52]: 92.3 µM (inactive)
GI50 [53]: 57.4 µM (inactive)
GI50 [54]: 31.4 µM (inactive)

Cc1ccc(N2C(=O)C(=CN)C(=O)N(c3ccc(C)cc3)C2=O)cc1
GI50 [1]: > 100 µM (inactive)
GI50 [2]: 84.9 µM (inactive)
GI50 [3]: > 100 µM (inactive)
GI50 [4]: 37.9 µM (inactive)
GI50 [5]: 31.8 µM (inactive)
GI50 [6]: 89.9 µM (inactive)
GI50 [7]: > 100 µM (inactive)
GI50 [8]: 46.8 µM (inactive)
GI50 [10]: > 100 µM (inactive)
GI50 [11]: > 100 µM (inactive)
GI50 [12]: 10 µM (inactive)
GI50 [13]: > 100 µM (inactive)
GI50 [14]: 62.1 µM
GI50 [15]: > 100 µM (inactive)
GI50 [16]: > 100 µM (inactive)
GI50 [17]: 44.2 µM (inactive)
GI50 [18]: 31.1 µM (inactive)
GI50 [19]: > 100 µM (inactive)
GI50 [20]: 71.9 µM (inactive)
GI50 [55]: > 100 µM (inactive)
GI50 [21]: > 100 µM (inactive)
GI50 [22]: > 100 µM (inactive)
GI50 [56]: > 100 µM (inactive)
GI50 [23]: > 100 µM (inactive)
GI50 [24]: > 100 µM (inactive)
GI50 [25]: > 100 µM (inactive)
GI50 [26]: > 100 µM (inactive)
GI50 [27]: 47.6 µM (inactive)
GI50 [28]: > 100 µM (inactive)
GI50 [29]: > 100 µM (inactive)
GI50 [30]: > 100 µM (inactive)
GI50 [31]: > 100 µM (inactive)
GI50 [32]: 65.9 µM (inactive)
GI50 [33]: > 100 µM (inactive)
GI50 [57]: > 100 µM (inactive)
GI50 [34]: > 100 µM (inactive)
GI50 [35]: 91.6 µM (inactive)
GI50 [36]: > 100 µM (inactive)
GI50 [37]: > 100 µM (inactive)
GI50 [38]: > 100 µM (inactive)
GI50 [39]: > 100 µM (inactive)
GI50 [40]: > 100 µM (inactive)
GI50 [41]: 66.8 µM (inactive)
GI50 [42]: > 100 µM (inactive)
GI50 [43]: 19.2 µM (inactive)
GI50 [44]: 51.6 µM (inactive)
GI50 [45]: > 100 µM (inactive)
GI50 [46]: 13.3 µM (inactive)
GI50 [47]: > 100 µM (inactive)
GI50 [48]: > 100 µM (inactive)
GI50 [49]: > 100 µM (inactive)
GI50 [50]: 48.4 µM (inactive)
GI50 [51]: 10 µM (inactive)
GI50 [52]: > 100 µM (inactive)
GI50 [53]: 68.9 µM (inactive)
GI50 [54]: 53.5 µM (inactive)
